Measurements from patent US20220380430A1, “Non-Transgenic Functional Rescue of Neuropeptides” (Worcester Polytechnic Institute, priority 2021, published 2022).
Entries after “also recorded” stand apart in the source; their conditions may differ. No end group written: not given here.

Key:
[1] = biological target: T1, NPR-10B (Caenorhabditis elegans, UniProt Q6EUU1); assay: In vitro GPCR activation assay (CHO-K1 cells, aequorin, human Gα16), NPR-10B; type: cell-based, C. elegans; settings: for EC50: title: NPR-10B, calcium/aequorin luminescence in transfected CHO-K1 cells; for activation of NPR-10 (NPR-10B): in words
T1 sequence (Q6EUU1 1-362): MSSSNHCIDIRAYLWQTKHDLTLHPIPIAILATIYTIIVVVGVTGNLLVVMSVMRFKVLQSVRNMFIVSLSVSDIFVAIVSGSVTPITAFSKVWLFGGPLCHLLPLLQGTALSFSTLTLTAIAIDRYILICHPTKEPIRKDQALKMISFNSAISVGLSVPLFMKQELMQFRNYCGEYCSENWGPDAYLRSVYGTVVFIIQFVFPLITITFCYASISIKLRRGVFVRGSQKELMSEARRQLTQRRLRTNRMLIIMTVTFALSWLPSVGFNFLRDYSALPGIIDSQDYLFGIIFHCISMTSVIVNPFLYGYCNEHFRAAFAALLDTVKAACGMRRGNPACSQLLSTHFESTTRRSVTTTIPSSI
Method: Using Chinese hamster ovarian (CHO) cell cultures stably expressing the promiscuous G protein, Gα16, and the calcium reporter, aequorin, it was observed that both isoforms of NPR-10 are activated by seven of the ten FLP-3 peptides, with half-maximal effective concentrations (EC50) in the nM range (FIG. 14A-FIG. 14H, Table V). […] This peptide contains an R-to-K mutation within the C-terminal motif, which may explain the lack of receptor activation.
(§1) The GPCR activation assay was performed as previously described Van Sinay, E. et al. Proc. Natl Acad. Sci. USA 114, E4065-e4074 (2017) and Peymen, K. et al. PLoS Genet. 15, e1007945 (2019). Briefly, npr-10 and frpr-16 cDNAs were cloned into the pcDNA3.1 TOPO expression vector (Thermo Fisher Scientific). A CHO-K1 cell line (PerkinElmer, ES-000-A24) stably expressing apo-aequorin targeted to the mitochondria (mtAEQ) and human Gα16 was transiently transfected with the receptor cDNA construct or the empty pcDNA3.1 vector using Lipofectamine LTX and Plus reagent (Thermo Fisher Scientific). Cells were shifted to 28° C. one day later and allowed to incubate for 24 h. On the day of the assay, cells were collected in BSA medium (DMEM/Ham's F12 with 15 mM HEPES, without phenol red, 0.1% BSA) and loaded with […] coelenterazine h (Thermo Fisher Scientific) for 4 h at room temperature. The incubated cells were then added to synthetic peptides dissolved in DMEM/BSA, and luminescence was measured for 30 s at […] using a Mithras LB940 (Berthold Technologies) or MicroBeta LumiJet luminometer (PerkinElmer). After 30 s of readout, 0.1% triton X-100 was added to lyse the cells, resulting in a maximal calcium response that was measured for 10 s. After initial screening, concentration-response curves were constructed for HPLC-purified FLP-3 peptides by subjecting the transfected cells to each peptide in a concentration range from 1 pM to 10 μM. Cells transfected with an empty vector were used as a negative control. Assays were performed in triplicate on at least two independent days. Concentration-response curves were fitted using Prism v. 7 (nonlinear regression analysis with a sigmoidal concentration-response equation).

[2] = biological target: T2, FRPR-16 (Caenorhabditis elegans, UniProt Q21957); assay: In vitro GPCR activation assay (CHO-K1 cells, aequorin, human Gα16), FRPR-16; type: cell-based, C. elegans; settings: for EC50: calcium/aequorin luminescence in transfected CHO-K1 cells; for activation of FRPR-16: in words
T2 sequence (Q21957 1-340): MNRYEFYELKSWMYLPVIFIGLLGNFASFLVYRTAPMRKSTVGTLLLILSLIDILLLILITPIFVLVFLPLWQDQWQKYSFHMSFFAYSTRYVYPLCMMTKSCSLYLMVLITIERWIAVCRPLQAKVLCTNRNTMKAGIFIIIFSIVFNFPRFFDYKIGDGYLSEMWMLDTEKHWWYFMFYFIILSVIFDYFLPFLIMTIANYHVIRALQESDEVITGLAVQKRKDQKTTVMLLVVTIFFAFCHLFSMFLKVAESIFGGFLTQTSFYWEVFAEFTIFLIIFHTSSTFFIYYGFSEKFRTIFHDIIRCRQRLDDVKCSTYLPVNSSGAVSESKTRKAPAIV
Method: as §1

[3] = test system: flp-3 lof males; assay: Drop avoidance assay to ascr #8 after FLP-3 peptide rescue-by-feeding; type: in vivo, C. elegans; settings: flp-3 lof males raised on peptide; 1 μM ascr #8; in words
Method: To identify which FLP-3 peptides are required for male avoidance of ascr #8, a peptide feeding approach https://www.nature.com/articles/s42003-021-02547-7-ref-CR59 was adopted, similar to RNAi feeding (FIG. 16A). Using Gateway Cloning technology, FLP-3 peptide coding sequences were inserted into a bacterial expression vector. As a control, first the FLP-3 peptides were tested that are still encoded in the ok3625 allele which are insufficient to drive the proper ascr #8 response in vivo: FLP-3-1 (SPLGTMRFamide) (SEQ ID NO: 10) and FLP-3-4 (NPLGTMRFamide) (SEQ ID NO: 11). Then flp-3 lof animals were reared on lawns of bacteria expressing the rescue constructs, and their progeny were assayed for avoidance (FIG. 16B-FIG. 16D).
Assays were performed as described previously in Chute, C. D. & Srinivasan, J. Semin. Cell Dev. Biol. 33, 18-24 (2014); Chute, C. D. et al. Nat. Commun. 10, 3186 (2019); and Hilliard, M. A. et al., EMBO J. 23, 1101-1111 (2004). Fifty to sixty L4 worms were segregated by sex and stored at 20° C. for 5 h to overnight to be assayed as young adults. One to four hours prior to the assay, the lids of unseeded plates were tilted to allow any excess moisture to evaporate off the plates. At the time of the assay, 10 or more animals were transferred onto each of the dried, unseeded plates. A drop of either water or 1 μM ascr #8 was placed on the tail of forward moving animals, and their response was scored as either an avoidance response, or no response. The total number of avoidances was divided by the total number of drops to generate an avoidance index for that plate. This was repeated for at least 10 plates over at least three different days.
SCRAMBLE control or FLP-3 peptide constructs were grown overnight in LB media containing […] ampicillin at 37° C. and diluted to an OD600 of 1.0 prior to seeding on NGM plates containing […] ampicillin and 1 mM IPTG. The 75 μL lawn was left to dry and grow overnight at room temperature before three L4 animals were placed on the plates. Males were selected for testing in the same manner as described above but were isolated onto plates also seeded with the same peptide on which they had been reared. Animals were then assayed using either the avoidance assay or single worm assay.

[4] = test system: him-5 and pdf-1 males; assay: Excursion (food-leaving) assay after rescue-by-feeding; type: in vivo, C. elegans; settings: for PL (confidence interval): Probability of Leaving per hour, beyond 35 mm from food
From the text: We quantified the behavioral activity of pdf-1 lof males using a food-leaving behavior as previously described. Individuals were placed on a small food spot, and track patterns were scored at three different time points (2, 6, 24 hrs) (FIG. 4A). “Never left food” indicate the absence of tracks outside the food spot. […] “Major excursion” indicates the presence of tracks past the 1 cm boundary (FIG. 1B, Excursion Assay). The food-leaving behavior was quantified as a measure of mate-searching behavior. In this behavior well-fed males left food in search of mates and the data is represented as a Probability of Leaving (PL) (FIG. 7A).
The mate searching behavior of pdf-1 mutants was quantified in a food leaving assay. him-5 animals were used as wild-type control to ensure the presence of males. him-5 and pdf-1 animals were fed OP50, scramble peptide, PDF-1A, PDF-1B, or a 1:1 mixture of PDF-1A and PDF-1B cultures. Four to six larval L4 hermaphrodites were passed onto an NGM plate containing […] AMP and 1 mM IPTG with 75 μL of peptide. These worms were grown at 20° C. for about 4 days until the male progeny of the initial L4 worms were young adults. The day prior to the assay, young adult male pdf-1 or him-5 worms were singled onto 60 mm plates containing lawns of either OP50 (NGM plates) or appropriate peptide cultures (NGM containing […] AMP and 1 mM IPTG). To determine the mate searching effects of pdf-1, we performed a food-leaving assay as described previously in Barrios, A., et al., Nat Neurosci 15, 1675-1682 (2012); Lipton, J., et al., The Journal of neuroscience: the official journal of the Society for Neuroscience 24, 7427-7434 (2004); Ryan, D. A. et al. Curr Biol 24, 2509-2517 (2014), with modifications. In this assay, individuals were placed on a small food spot, and track patterns were scored at the indicated times. Assay plates were prepared one day prior to assaying on 100 mm plates with 10 mL of Leaving Assay media (25 mM KPO4 (pH 6.0), 1 mM MgSO4, 1 mM CaCl2), 50 mM NaCl, 2.5 g/L Peptone, 17 g/L Agar). On center of plate, 7 μL of OP50 was added. Plates were lightly covered and stored at room temperature overnight (˜20° C., <40% humidity).
On the day of the assay, a single male was plated on the assay plate and placed in a dark, 20° C. incubator. At 2, 6, and 24 hours after the worms are plated, plates were scored for male worm tracks. Scored were separated into binned ranges. “Never left food” indicates the absence of tracks outside the food spot. […] “Major excursion” indicates the presence of tracks past the 1 cm boundary. The food leaving behavior was quantified at three different time points (2, 6, and 24 hours). (FIG. 4A, FIG. 7A, Table IV).
The mate searching defect of pdf-1 was quantified as a Probability of Leaving per hour (PL) (FIG. 4B, FIG. 7B).
The assay was performed across at least two days per condition, with at least n=50, wherein each assay plate with one male is equal to n=1. In all experiments, the investigators were blinded to genotype. Worm in the >35 mm from the center of food bin were scored as “leavers”. The probability of leaving per hour (Probability of Leaving (PL)) was calculated using an R script developed in Barrios et al., with assistance by (Personal Communications to Barrios, 2020). PL was calculated by the “hazard obtained by fitting an exponential parametric survival model to the censored data using maximum likelihood” (Table IV). The PLh-1 values for all pdf-1 animals fed scramble or peptide rescue were compared to him-5 worms fed scramble using an ANOVA followed by Bonferroni's multiple comparison (FIG. 4B, FIG. 7C).

Substance | EC50 [1] | EC50 [2] | rescue of avoidance phenotype to ascr #8 (Avoidance Index) [3] | other results
ASEDALFGTMRF-NH2 [FLP-3-5, ASEDALFGTMRFamide] | 1.1 µM | 0.0721 µM | – | –
EAEEPLGTMRF-NH2 [FLP-3-3, EAEEPLGTMRFamide] | 0.867 µM | 0.288 µM | – | –
EDGNAPFGTMKFamide (EDGNAPFGTMKF-NH2) [FLP-3-6] | – | – | – | activation of NPR-10 (NPR-10B) [1]: did not activate NPR-10; also recorded: did not activate either receptor; activation of FRPR-16 [2]: did not activate FRPR-16; also recorded: did not activate either receptor
NPLGTMRF-NH2 [FLP-3-4, NPLGTMRFamide] | 0.427 µM | 0.0107 µM | unable to rescue the avoidance phenotype on their own | –
SAEPFGTMRF-NH2 [FLP-3-7, SAEPFGTMRFamide] | 0.439 µM | 0.0395 µM | – | –
SNAELINGLIGMDLGKLSAVG-NH2 [PDF-1A] | – | – | – | PL (confidence interval) ([4]; him-5 males): 0.06979 (0.05892, 0.08269); PL (confidence interval) ([4]; pdf-1 males): 0.03287 (0.02657, 0.04224)
SNAELINGLLSMNLNKLSGAG-NH2 [PDF-1B] | – | – | – | PL (confidence interval) ([4]; him-5 males): 0.08712 (0.0754, 0.1007); Probability of Leaving, comparison in words ([4]; pdf-1 lof males fed peptide): significantly different PL from pdf-1 males fed PDF-1A alone; rescue of food-leaving behavior (percent of males leaving food) ([4]; pdf-1 lof males, 2, 6, 24 hrs): complete rescue of food-leaving behavior; PL (confidence interval) ([4]; pdf-1 males): 0.05821 (0.04761, 0.07118)
SPLGTMRF-NH2 [FLP-3-1, SPLGTMRFamide] | 0.262 µM | 0.0074 µM | unable to rescue the avoidance phenotype on their own | –
STVDSSEPVIRDQ [FLP-3-10] | – | – | unable to rescue the avoidance phenotype | activation of NPR-10 (NPR-10B) [1]: failed to activate the receptor; also recorded: did not activate either receptor; activation of FRPR-16 [2]: did not activate FRPR-16; also recorded: did not activate either receptor
